Experimental findings from US8481525B2, “Kinase inhibitors and method of treating cancer with same” (University of Health Network, priority 2009, dated 2013) are described below.

Each structure is given as a SMILES string. Like-named read-outs stand apart in the source and are kept apart here.

Assay [1] has as its system A549 lung cancer cell line. The assay can be described thus: Cell growth inhibition, Sulforhodamine B assay (SRB). Type of assay: cell-based. Particulars: Homo sapiens, read-out: Cell Line GI50 Range A-549. The procedure:
(§1) The cells were cultured for 5 days before the Sulforhodamine B assay (SRB) was performed to determine the compound's cell growth inhibition activity.
(§2) Sulforhodamine B (purchased from Sigma, Oakville, ON, Canada) is a water-soluble dye that binds to the basic amino acids of the cellular proteins. Thus, colorimetric measurement of the bound dye provides an estimate of the total protein mass that is related to the cell number. the cells are fixed in situ by gently aspirating off the culture media and adding 50 μl ice cold 10% Trichloroacetic Acid (TCA) per well and incubate at 4° C. for 30-60 min, The plates are washed with water five times and allowed to air dry for 5 min. […] Following staining, plates are washed four times with 1% acetic acid to remove unbound dye and then allowed to air dry for 5 min. […] Absorbance is read at 570 nm.
(§3) The percentage (%) of relative growth inhibition was calculated by comparing to DMSO treated only cells (100%). GI50's were determined for compounds with cytotoxic activity. The GI50 was calculated using GraphPad PRISM software (GraphPad Software, Inc., San Diego, Calif., USA).
On the technique in general: The SRB assay estimates cell density from bound dye.

In assay [2] the test system is MCF-7 luminal breast cancer cell line. Described as above. Type of assay: cell-based. Particulars: Homo sapiens, MCF7, 120 h, read-out: Cell Line GI50 Range MCF-7. The procedure: as §1, §2, §3
For assay [3], the system named is HCC1954 basal breast cancer cell line. Described as above. The settings on record: Homo sapiens, 5 days culture, SRB. Type of assay: cell-based. On the procedure: as §1, §2, §3
In assay [4] the test system is MDA-MB-468 basal breast cancer cell line. The description is as above. Particulars: Homo sapiens, 5 days culture, SRB. Type of assay: cell-based. The procedure:
as §1, §2, §3

Assay [5] concerns SW620 colon cancer cell line. Described as above. Type of assay: cell-based. Particulars: Homo sapiens, SW-620, 120 h, read-out: Cell Line GI50 Range SW-620. The procedure:
as §1, §2, §3

The target in a further assay is T1, Aurora B (Homo sapiens, UniProt Q96GD4).
T1 construct: purchased Invitrogen PV3970
The assay can be described thus: Aurora B Inhibition Assay (Z-Lyte). Type of assay: biochemical. The settings on record: 128 μM ATP; read-out: Aurora B IC50 Ranges. The procedure: Aurora B inhibition was determined using the Z-Lyte assay kit from Invitrogen. […] The % inhibition values were determined according to the manufacturer's directions and IC50 values were obtained using a non-linear 4 point logistic curve fit (XLfit4, IDBS)

The next assay concerns the target T2, human PLK4 (Homo sapiens, UniProt O00444).
T2 construct: amino terminal GST fusion of residues 1-391 of human PLK4; made in house; host or cells: E. coli
T2 sequence (O00444 1-391): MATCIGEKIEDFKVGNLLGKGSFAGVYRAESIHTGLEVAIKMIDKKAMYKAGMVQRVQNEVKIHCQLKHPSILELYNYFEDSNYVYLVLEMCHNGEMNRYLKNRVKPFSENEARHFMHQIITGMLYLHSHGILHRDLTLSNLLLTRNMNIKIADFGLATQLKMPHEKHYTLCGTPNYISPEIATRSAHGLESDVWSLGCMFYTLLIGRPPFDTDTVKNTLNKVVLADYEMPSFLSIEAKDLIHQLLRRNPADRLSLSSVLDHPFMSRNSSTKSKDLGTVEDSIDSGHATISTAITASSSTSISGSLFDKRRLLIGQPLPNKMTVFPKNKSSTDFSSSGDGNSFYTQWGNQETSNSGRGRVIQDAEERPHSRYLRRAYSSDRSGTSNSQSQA
The assay can be described thus: PLK4 Inhibition Assay (indirect ELISA). Type of assay: biochemical. On the procedure: The protein was purified from clarified cell extracts after induction at 15° C. overnight using glutathione sepharose, gel permeation chromatography, and ion exchange (Resource Q). The resulting protein was dephosphorylated with lambda phosphatase (NEB cat# P0753), and resolved from the phosphatase using gluthione sepharose. The dephosphorylated GST-PLK4 was stored in aliquots at −80° C. until use.
PLK4 activity was measured using an indirect ELISA detection system. […] The colourimetric reaction was allowed to continue for 5 minutes, followed by addition of stop solution (0.5 N sulphuric acid), and quantified by detection at 450 nm with either a monochromatic or filter based plate reader (Molecular Devices M5 or Beckman DTX880, respectively).
Compounds were pre-incubated in the presence of enzyme for 15 minutes prior to addition of ATP and the activity remaining quantified using the above described activity assay. […] The IC50 value was determined using a non-linear 4 point logistic curve fit (XLfit4, IDBS) with the formula; (A+(B/(1+((x/C){grave over ( )}D)))), where A=background value, B=range, C=inflection point, D=curve fit parameter.

Another assay concerns the target T3, Aurora A (Homo sapiens, UniProt O14965).
T3 construct: purchased Invitrogen PV3612
T3 sequence (O14965 1-403): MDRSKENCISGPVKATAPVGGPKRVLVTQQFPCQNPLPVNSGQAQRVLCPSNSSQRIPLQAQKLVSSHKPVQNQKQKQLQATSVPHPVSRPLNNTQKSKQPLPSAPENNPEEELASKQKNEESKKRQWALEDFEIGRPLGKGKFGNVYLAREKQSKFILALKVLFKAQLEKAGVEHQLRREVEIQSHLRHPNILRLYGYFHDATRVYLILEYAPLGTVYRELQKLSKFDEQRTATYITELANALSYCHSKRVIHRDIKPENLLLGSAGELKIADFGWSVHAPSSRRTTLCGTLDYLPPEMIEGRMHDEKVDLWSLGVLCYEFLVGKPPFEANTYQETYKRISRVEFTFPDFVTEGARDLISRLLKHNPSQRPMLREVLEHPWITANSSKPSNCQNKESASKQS
The assay can be described thus: Aurora A Inhibition Assay (Z-Lyte). Type of assay: biochemical. Particulars: 1 μM compound; 20 μM ATP; read-out: Aurora A relative inhibition percentage at a dose of 1 μM. The procedure:
Aurora A inhibition was determined using the Z-Lyte assay kit from Invitrogen. The assay was performed using the recommended manufacturer's instructions with 20 μM ATP and 12 nM Aurora A (Invitrogen cat # PV3612). The % inhibition values were determined according to the manufacturer's directions and IC50 values were obtained using a non-linear 4 point logistic curve fit (XLfit4, IDBS)

Where [6] appears, read: 120 h, A549 lung cancer cell line, 5 days culture, SRB.
Where [7] appears, read: MCF-7 luminal breast cancer cell line, 5 days culture, SRB.
The mark [8] stands for this setting: 120 h, HCC1954 basal breast cancer cell line, read-out: Cell Line GI50 Range HCC-1954.
The mark [9] stands for this setting: 120 h, MDA-MB-468 basal breast cancer cell line, read-out: Cell Line GI50 Range MDA-MB-468.
[10] abbreviates: SW620 colon cancer cell line, 5 days culture, SRB.
[11] abbreviates: 15 μM ATP, read-out: PLK4 IC50 Ranges.
Where [12] appears, read: HCC1954, 120 h, read-out: Cell Line GI50 Range HCC-1954, HCC1954 basal breast cancer cell line.
Setting [13] is: MDA-MB-468, 120 h, read-out: Cell Line GI50 Range MDA-MB-468, MDA-MB-468 basal breast cancer cell line.
Where [14] appears, read: HCC1954, 120 h, HCC1954 basal breast cancer cell line, read-out: Cell Line GI50 Range HCC-1954.

T1 sequence (Q96GD4 whole entry): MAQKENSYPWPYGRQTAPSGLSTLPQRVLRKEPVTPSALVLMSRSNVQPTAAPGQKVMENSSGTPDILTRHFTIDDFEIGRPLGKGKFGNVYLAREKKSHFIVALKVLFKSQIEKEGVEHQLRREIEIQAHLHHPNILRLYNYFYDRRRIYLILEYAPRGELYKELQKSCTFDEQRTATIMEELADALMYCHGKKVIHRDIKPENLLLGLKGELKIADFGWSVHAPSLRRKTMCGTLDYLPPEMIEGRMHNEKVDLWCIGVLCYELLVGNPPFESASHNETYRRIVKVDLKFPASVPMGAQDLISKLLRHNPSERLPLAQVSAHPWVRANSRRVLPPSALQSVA

Turning to `COc1ccc2c(c1)[C@@]1(C[C@@H]1c1ccc3c(-c4ccc(N5CCNCC5)nc4)n[nH]c3c1)C(=O)N2` (racemic) [Example A21, 4-(5-(6-((1R*,2S*)-5′-Methoxy-2′-oxospiro[cyclopropane-1,3′-indoline]-2-yl)-1H-indazol-3-yl)pyridinium-2-yl)piperazine bis(2,2,2-trifluoroacetate)], the GI50 is 1000 to 10000 nM in assay [1] (setting [6]); less than 100 nM in assay [2] (setting [7]); more than 10000 nM in assay [3] (setting [8]); 100 to 1000 nM in assay [4] (setting [9]); 1000 to 10000 nM in assay [5] (setting [10]). In addition, the IC50 on Aurora B and on human PLK4 (setting [11]) was less than 100 nM in each case.

For `COc1ccc2c(c1)[C@@]1(C[C@@H]1c1ccc3c(-c4cccc(CCO)c4)n[nH]c3c1)C(=O)N2` (racemic) [Example A46, (1R*,2S*)-2-(3-(3-(2-hydroxethyl)phenyl)-1H-indazol-6-yl)-5′-methoxy spiro[cyclopropane-1,3′-indolin]-2′-one], the GI50 in assay [1] (setting [6]) was 1000 to 10000 nM; in assay [2] (setting [7]) it was 1000 to 10000 nM; in assay [3] (setting [8]) it was more than 10000 nM; in assay [4] (setting [9]) it was 1000 to 10000 nM; in assay [5] (setting [10]) it was more than 10000 nM. Besides, on human PLK4 (setting [11]), the IC50 is less than 100 nM.

Regarding `COc1ccc2c(c1)[C@@]1(C[C@@H]1c1ccc3c(-c4ccc(N5CCNCC5)cc4)n[nH]c3c1)C(=O)N2` (racemic) [Example A48, (1R*,2S*)-5′-methoxy-2-(3-(4-(piperazin-1-yl)phenyl)-1H-indazol-6-yl)spiro[cyclopropane-1,3′-indolin]-2′-one 2,2,2-trifluoroacetate], the GI50 in assay [1] (A549, 120 h) was less than 100 nM; in assay [2], less than 100 nM; in assay [3] (setting [12]), 1000 to 10000 nM; in assay [4] (setting [13]), less than 100 nM; in assay [5], 1000 to 10000 nM. The IC50 at Aurora B and on human PLK4 was less than 100 nM throughout. Also, the inhibition at 1 µM at Aurora A was less than 50%.

`COc1ccc2c(c1)[C@@]1(C[C@@H]1c1ccc3c(-c4ccc(N5CCC(N(C)C)CC5)cc4)n[nH]c3c1)C(=O)N2` (racemic) [Example A119, (1R*,2S*)-2-(3-(4-(4-(dimethlamino)piperidin-yl)phenyl)-1H-indazol-6-yl)-5′-methoxyspiro[cyclopropane-1,3′-indolin]-2′-one 2,2,2-trifluoroacetate]: the GI50 is less than 100 nM in assay [1] (setting [6]); less than 100 nM in assay [2] (setting [7]); 100 to 1000 nM in assay [3] (setting [14]); less than 100 nM in assay [4] (setting [9]); less than 100 nM in assay [5] (setting [10]). For the same compound, the IC50 on Aurora B and at human PLK4 (setting [11]) was less than 100 nM throughout.

Turning to `CN1CCN(c2ccc(-c3n[nH]c4cc([C@@H]5C[C@@]56C(=O)Nc5ccc(C(F)(F)F)cc56)ccc34)cc2)CC1` (racemic) [Example A170, (1R*,2S*)-2-(3-(4-(4-methylpiperazin-1-yl)phenyl)-1H-indazol-6-yl)-5′-(trifluoromethyl)spiro[cyclopropane-1,3′-indolin]-2′-one 2,2,2-trifluoroacetate], the IC50 on human PLK4 (setting [11]) was 100 to 1000 nM.

Turning to `COc1ccc2c(c1)[C@@]1(C[C@@H]1c1ccc3c(/C=C/c4csc(CN(C)C)c4)n[nH]c3c1)C(=O)N2` (racemic) [Example A181, (1R*,2S*)-2-(3-((E)-2-(5-((dimethylamino)methyl)thiophen-3-yl)vinyl)-1H-indazol-6-yl)-5′-methoxyspiro[cyclopropane-1,3′-indolin]-2′-one 2,2,2-trifluoro acetate], the GI50 in assay [1] (setting [6]) is less than 100 nM; in assay [2] (setting [7]), less than 100 nM; in assay [3] (setting [14]) it was 100 to 1000 nM; in assay [4] (setting [9]), less than 100 nM; in assay [5] (setting [10]), less than 100 nM. The IC50 on Aurora B and on human PLK4 (setting [11]) was less than 100 nM each time.

As for `O=C1Nc2ccccc2[C@]12C[C@H]2c1ccc2c(I)n[nH]c2c1` (relative stereo) [Example A9, (1R*,2S*)-2-(3-iodo-1H-indazol-6-yl)spiro[cyclopropane-1,3′-indolin]-2′-one], the IC50 at human PLK4 is 100 to 1000 nM.

`COc1ccc2c(c1)[C@]1(C[C@H]1c1ccc3c(/C=C/c4cc(F)c(CN(C)C)c(F)c4)n[nH]c3c1)C(=O)N2` (relative stereo) [Example A215, (1R*,2 S*)-(E)-2-(3-(4-((dimethylamino)methyl)-3,5-difluorostyryl)-1H-indazol-6-yl)-5′-methoxyspiro[cyclopropane-1,3′-indolin]-2′-one 2,2,2-trifluoro acetate]: the IC50 on Aurora B and at human PLK4 (setting [11]) was less than 100 nM throughout.

Take `COc1ccc2c(c1)[C@]1(C[C@H]1c1ccc3c(-c4ccc(N5CCNCC5)cc4)n[nH]c3c1)C(=O)N2` [Example A49, (1R,2S)-5′-methoxy-2-(3-(4-(piperazin-1-yl)phenyl)-1H-indazol-6-yl)spiro[cyclopropane-1,3′-indolin]-2′-oneone 2,2,2-trifluoroacetate]: the GI50 is less than 100 nM in assay [1] (A549, 120 h); less than 100 nM in assay [2]; 1000 to 10000 nM in assay [3] (setting [12]); less than 100 nM in assay [4] (setting [13]); 1000 to 10000 nM in assay [5]. Also, the IC50 on Aurora B and at human PLK4 was less than 100 nM in each case. The inhibition at 1 µM on Aurora A is less than 50%.

What is called GI50 is the concentration giving 50% growth inhibition. By IC50 is commonly meant the concentration needed to halve the response being measured. The term inhibition denotes the drop in the measured response relative to a control, in per cent.
